Ends that are not written are not given here.

The subject of the series is Daudi cells. Kind of series: Cytotoxicity test: NK effector cells (YT) incubated with tumor target cells (Daudi) plus test peptide, LDH release. It is filed as cell-based. As to conditions: YT and Daudi cells 1:10, 16 h. On the procedure:
For the cytotoxicity measurement, NK cells, which specifically kill tumor cells, as effector cells were incubated with tumor cells as target cells in the presence of the test peptides. The cytotoxicity measurement was performed by measuring the release of lactate dehydrogenase (LDH) according to the standard protocol by a cytotoxicity test kit (Promega, Germany) and in a microwell plate reader. As NK cells (E), YT cells (DSMZ, Germany) were used. As target cells (T), Daudi cells (DSMZ, Germany) were used. YT and Daudi cells were seeded in microwell plates at a ratio of 1:10 and incubated in the presence of 0.3, 3, 30:M test peptide for 16 h.
On the next day, 10:l of lysis buffer each were added to the cells and the cells were incubated for additional 2 h. Subsequently, 5:l of the agent were transferred into a second microwell plate and combined with 50:l of substrate buffer. After a 30 min incubation, the reaction was terminated by 50:l of stop solution and the absorption of the formed MTT color complex was measured in a microwell plate reader.
(In general: LDH in the medium is a marker of cell lysis.)

On to “APTSSSTKKTQLQLEHFLMKFQMILNGINN [Sequence 3, APTSSSTKKT QLQLEHFLMK FQMILNGINN]”, for which the Cytotoxicity reads like this: (0.3:M test peptide) 0%; (3:M test peptide) 20%; (30:M test peptide) 0%.
Consider “APTSSSTKKTQLQLEHFLLDFQMILNGINN [Sequence 2, APTSSSTKKT QLQLEHFLLD FQMILNGINN]”, for which the Cytotoxicity amounted to 30% (0.3:M test peptide), 80% (3:M test peptide) and 10% (30:M test peptide).
The matching figures for “APTSSSTKKTQLQLEHLLLKLQMILNGINN [Sequence 1, APTSSSTKKT QLQLEHLLLK LQMILNGINN]”: 30%, 30% and 30%.

These data come from patent publication US20070060508A1, “Binding molecules” (priority 2002, published 2007).
